Six compounds from patent publication US20110172236A1, “SUBSTITUTED ARYL SULFONE DERIVATIVES AS CALCIUM CHANNEL BLOCKERS” (priority 2008, published 2011) can be followed below.

The test deals with T1, Human Cav2.2 channels (Homo sapiens, UniProt Q00975).
T1 construct: expressed in transfected cells
The experiment in a line: Fluorescent assay for Cav2.2 channels using potassium depolarization (Assay Example 1). It counts as cell-based. Particulars: pre-incubation potassium concentration not stated. From the text: Assay Example 1: Fluorescent Assay for Cav2.2 Channels Using Potassium Depolarization to Initiate Channel Opening.
Human Cav2.2 channels were stably expressed in KEK293 cells along with alpha2-delta and beta subunits of voltage-gated calcium channels. An inwardly rectifying potassium channel (Kir2.3) was also expressed in these cells to allow more precise control of the cell membrane potential by extracellular potassium concentration. At low bath potassium concentration, the membrane potential is relatively negative, and is depolarized as the bath potassium concentration is raised. In this way, the bath potassium concentration can be used to regulate the voltage-dependent conformations of the channels. Compounds are incubated with cells in the presence of low (4 mM) potassium or elevated (12, 25 or 30 mM) potassium to determine the affinity for compound block of resting (closed) channels at 4 mM potassium or affinity for block of open and inactivated channels at 12, 25 or 30 mM potassium. After the incubation period, Cav2.2 channel opening is triggered by addition of higher concentration of potassium (70 mM final concentration) to further depolarize the cell. The degree of state-dependent block can be estimated from the inhibitory potency of compounds after incubation in different potassium concentrations.
Calcium influx through Cav2.2 channels is determined using a calcium-sensitive fluorescent dye in combination with a fluorescent plate reader. Fluorescent changes were measured with either a VIPR (Aurora Instruments) or FLIPR (Molecular Devices) plate reader.
• 1. Seed cells in Poly-D-Lysine Coated 96- or 384-well plate and keep in a 37° C.-10% CO2 incubator overnight • 2. Remove media^1, wash cells with 0.2 ml (96-well plate) or 0.05 ml (384-well plate) Dulbecco's Phosphate Buffered Saline (D-PBS) with calcium & magnesium (Invitrogen; 14040) • 3. Add 0.1 ml (96-well plate) or 0.05 ml (384-well plate) of 4 μM fluo-4 (Molecular Probes; F-14202) and 0.02% Pluronic acid (Molecular Probes; P-3000) prepared in D-PBS with calcium & magnesium (Invitrogen; 14040) supplemented with 10 mM Glucose & 10 mM Hepes/NaOH; pH 7.4 • 4. Incubate in the dark at 25° C. for 60-70 min • 5. Remove dye^2, wash cells with 0.1 ml (96-well plate) or 0.06 ml (384-well plate) of 4, 12, 25, or 30 mM Potassium Pre-polarization Buffer. (PPB) • 6. Add 0.1 ml (96-well plate) or 0.03 ml (384-well plate) of 4, 12, 25, 30 mM PPB. with or without test compound • 7. Incubate in the dark at 25° C. for 30 min • 8. Read cell plate on VIPR instrument, Excitation=480 nm, Emission 535 nm • 9. With VIPR continuously reading, add 0.1 ml (96-well plate) or 0.03 ml (384-well plate) of Depolarization Buffer, which is 2× the final assay concentration, to the cell plate.

T1 sequence (Q00975 whole entry): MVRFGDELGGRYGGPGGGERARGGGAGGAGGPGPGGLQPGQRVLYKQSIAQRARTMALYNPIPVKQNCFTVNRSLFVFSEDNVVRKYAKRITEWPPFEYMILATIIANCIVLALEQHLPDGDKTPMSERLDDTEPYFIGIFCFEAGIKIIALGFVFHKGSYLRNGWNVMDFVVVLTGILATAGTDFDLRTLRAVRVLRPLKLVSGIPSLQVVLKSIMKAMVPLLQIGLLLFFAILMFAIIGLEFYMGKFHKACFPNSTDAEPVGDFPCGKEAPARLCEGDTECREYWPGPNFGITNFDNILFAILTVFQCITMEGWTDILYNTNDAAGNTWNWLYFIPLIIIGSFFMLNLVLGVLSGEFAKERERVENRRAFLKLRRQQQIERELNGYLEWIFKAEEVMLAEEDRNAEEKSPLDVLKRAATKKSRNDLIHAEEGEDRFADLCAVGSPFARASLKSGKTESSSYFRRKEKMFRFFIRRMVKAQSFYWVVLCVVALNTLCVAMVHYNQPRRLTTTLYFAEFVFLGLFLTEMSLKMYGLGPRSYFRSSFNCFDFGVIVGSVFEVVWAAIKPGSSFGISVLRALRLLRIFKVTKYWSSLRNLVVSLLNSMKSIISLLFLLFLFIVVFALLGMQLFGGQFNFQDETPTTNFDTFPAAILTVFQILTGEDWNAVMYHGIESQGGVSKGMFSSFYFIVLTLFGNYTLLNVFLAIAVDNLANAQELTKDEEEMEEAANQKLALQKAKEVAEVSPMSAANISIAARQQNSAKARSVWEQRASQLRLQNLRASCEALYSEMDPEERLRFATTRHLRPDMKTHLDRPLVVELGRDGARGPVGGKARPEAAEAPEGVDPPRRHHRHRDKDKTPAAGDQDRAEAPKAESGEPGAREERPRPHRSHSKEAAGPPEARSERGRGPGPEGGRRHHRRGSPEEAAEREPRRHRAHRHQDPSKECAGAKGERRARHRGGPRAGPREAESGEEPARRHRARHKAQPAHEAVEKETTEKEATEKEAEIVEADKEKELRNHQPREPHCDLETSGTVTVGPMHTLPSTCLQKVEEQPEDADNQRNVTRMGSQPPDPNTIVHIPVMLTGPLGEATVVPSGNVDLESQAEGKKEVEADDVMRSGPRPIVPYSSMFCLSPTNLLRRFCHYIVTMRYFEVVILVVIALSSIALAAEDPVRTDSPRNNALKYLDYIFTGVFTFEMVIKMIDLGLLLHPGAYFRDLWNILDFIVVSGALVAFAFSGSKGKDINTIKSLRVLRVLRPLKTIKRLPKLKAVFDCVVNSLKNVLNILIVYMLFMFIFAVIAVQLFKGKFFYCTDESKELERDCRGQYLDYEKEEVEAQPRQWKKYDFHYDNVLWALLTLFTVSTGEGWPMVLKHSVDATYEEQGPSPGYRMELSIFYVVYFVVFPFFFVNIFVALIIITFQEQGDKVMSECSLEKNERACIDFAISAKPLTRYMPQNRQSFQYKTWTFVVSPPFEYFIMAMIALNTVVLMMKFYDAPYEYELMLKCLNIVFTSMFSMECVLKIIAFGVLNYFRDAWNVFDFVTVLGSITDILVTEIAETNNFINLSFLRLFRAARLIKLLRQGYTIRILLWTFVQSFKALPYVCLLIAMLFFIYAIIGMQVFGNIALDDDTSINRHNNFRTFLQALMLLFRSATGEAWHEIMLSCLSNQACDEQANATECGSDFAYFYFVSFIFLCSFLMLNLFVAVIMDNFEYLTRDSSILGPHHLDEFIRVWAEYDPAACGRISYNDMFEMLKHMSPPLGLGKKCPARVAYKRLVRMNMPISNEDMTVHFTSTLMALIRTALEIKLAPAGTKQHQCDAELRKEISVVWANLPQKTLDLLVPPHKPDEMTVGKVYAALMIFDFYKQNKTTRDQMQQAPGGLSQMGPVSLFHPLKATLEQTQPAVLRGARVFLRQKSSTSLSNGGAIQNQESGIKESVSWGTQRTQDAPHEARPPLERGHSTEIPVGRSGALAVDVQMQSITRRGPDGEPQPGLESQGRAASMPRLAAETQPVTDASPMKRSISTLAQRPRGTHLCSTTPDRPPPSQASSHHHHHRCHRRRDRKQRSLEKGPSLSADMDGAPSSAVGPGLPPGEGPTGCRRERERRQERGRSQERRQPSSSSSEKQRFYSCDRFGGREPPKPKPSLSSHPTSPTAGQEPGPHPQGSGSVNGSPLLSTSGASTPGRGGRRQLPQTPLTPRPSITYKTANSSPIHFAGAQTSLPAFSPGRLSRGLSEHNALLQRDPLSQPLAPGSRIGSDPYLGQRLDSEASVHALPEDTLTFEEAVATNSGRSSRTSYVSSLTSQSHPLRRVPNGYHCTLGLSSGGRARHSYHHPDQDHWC

For `CC(C)(C1CCN(Cc2ccc(F)cc2)C(=O)C1)S(=O)(=O)c1cccc(C(F)(F)F)c1` (stereo not drawn), the IC50 came out at 220 nM. Then `CC(C)(C1CCN(c2ccccc2)C(=O)C1)S(=O)(=O)c1cccc(C(F)(F)F)c1` (stereo not drawn), with 360 nM. Turning to `CC(C)([C@H]1CCN(c2ccc(C(F)(F)F)cn2)C(=O)C1)S(=O)(=O)c1cccc(C(F)(F)F)c1`, the IC50 is 640 nM. `CC(C)([C@@H]1CCN(c2ccc(C(F)(F)F)cn2)C(=O)C1)S(=O)(=O)c1cccc(C(F)(F)F)c1`: the concentration for half-maximal inhibition (IC50) was found to be 280 nM. Then `CC(C)(C1CCC(=O)N(Cc2ccc(Cl)cc2)C1)S(=O)(=O)c1cccc(C(F)(F)F)c1` (stereo not drawn), with 890 nM; and `CC(C)(C1CC(=O)N(c2ccc(C(F)(F)F)cc2)C1)S(=O)(=O)c1cccc(C(F)(F)F)c1` (stereo not drawn), with 790 nM.

As a reminder, the IC50 is the concentration at which inhibition is half-maximal.
